According to ChEMBL document CHEMBL4725222, “Advances in the Development of Phosphodiesterase-4 Inhibitors” (J Med Chem, 2020):
One block for each compound: values may come before it.

Legend:
Phosphodiesterase 4 [1] = target: T1, Phosphodiesterase 4 (Homo sapiens, UniProt P27815+Q08499+Q07343+Q08493); experiment: Inhibition of PDE4 (unknown origin); type: protein assay
[2] = Inhibition of recombinant human PDE4B2B (1 to 564 residues) expressed in Saccharomyces cerevisiae using cAMP as substrate preincubated for 30 mins followed by cAMP addition and measured after 60 mins by luminescence method
Phosphodiesterase 4 [3] = target: T1, Phosphodiesterase 4; experiment: Inhibition of PDE4 in human U937 cell lysate using cAMP as substrate by LANCE assay; type: subcellular; conditions: u-937
[4] = target: T2, 3',5'-cyclic-AMP phosphodiesterase 4B (Homo sapiens, UniProt Q07343); experiment: Inhibition of recombinant N-terminal GST-tagged full length human PDE4B1 expressed in baculovirus infected Sf9 cells […] as substrate by HPLC-MS method
T2 sequence (Q07343 whole entry): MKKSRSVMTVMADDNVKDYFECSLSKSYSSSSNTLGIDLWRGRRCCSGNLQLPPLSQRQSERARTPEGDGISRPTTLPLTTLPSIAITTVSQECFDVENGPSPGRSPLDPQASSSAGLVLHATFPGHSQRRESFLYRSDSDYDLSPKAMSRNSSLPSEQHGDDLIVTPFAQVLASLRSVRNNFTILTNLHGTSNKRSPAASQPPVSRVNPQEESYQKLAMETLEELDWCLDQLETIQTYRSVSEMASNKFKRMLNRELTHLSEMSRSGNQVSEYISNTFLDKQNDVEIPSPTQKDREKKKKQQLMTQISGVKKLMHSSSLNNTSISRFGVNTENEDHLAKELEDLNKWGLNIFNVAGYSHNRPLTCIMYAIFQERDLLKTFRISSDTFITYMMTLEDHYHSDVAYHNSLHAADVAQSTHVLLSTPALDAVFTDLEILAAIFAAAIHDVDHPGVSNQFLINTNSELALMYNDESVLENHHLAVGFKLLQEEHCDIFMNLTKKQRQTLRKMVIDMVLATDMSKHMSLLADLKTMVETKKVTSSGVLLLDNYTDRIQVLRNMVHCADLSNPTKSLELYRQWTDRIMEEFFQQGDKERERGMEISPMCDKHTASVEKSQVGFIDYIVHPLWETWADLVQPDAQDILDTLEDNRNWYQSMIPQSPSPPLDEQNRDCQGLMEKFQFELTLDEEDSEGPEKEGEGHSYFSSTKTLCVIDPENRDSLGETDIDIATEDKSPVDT

[5] = target: T2, 3',5'-cyclic-AMP phosphodiesterase 4B; experiment: Inhibition of N-terminal GST tagged full length human PDE4B2 expressed in baculovirus infected Sf9 cell expression system using cAMP as substrate incubated for 60 mins by time-resolved fluorescence competitive immunoassay
[6] = target: 3',5'-cyclic-AMP phosphodiesterase 4C (Homo sapiens, UniProt Q08493); experiment: Inhibition of N-terminal GST tagged full length human PDE4C1 expressed in baculovirus infected Sf9 cell expression system using cAMP as substrate incubated for 60 mins by time-resolved fluorescence competitive immunoassay
Chain of 3',5'-cyclic-AMP phosphodiesterase 4C (Q08493 whole entry): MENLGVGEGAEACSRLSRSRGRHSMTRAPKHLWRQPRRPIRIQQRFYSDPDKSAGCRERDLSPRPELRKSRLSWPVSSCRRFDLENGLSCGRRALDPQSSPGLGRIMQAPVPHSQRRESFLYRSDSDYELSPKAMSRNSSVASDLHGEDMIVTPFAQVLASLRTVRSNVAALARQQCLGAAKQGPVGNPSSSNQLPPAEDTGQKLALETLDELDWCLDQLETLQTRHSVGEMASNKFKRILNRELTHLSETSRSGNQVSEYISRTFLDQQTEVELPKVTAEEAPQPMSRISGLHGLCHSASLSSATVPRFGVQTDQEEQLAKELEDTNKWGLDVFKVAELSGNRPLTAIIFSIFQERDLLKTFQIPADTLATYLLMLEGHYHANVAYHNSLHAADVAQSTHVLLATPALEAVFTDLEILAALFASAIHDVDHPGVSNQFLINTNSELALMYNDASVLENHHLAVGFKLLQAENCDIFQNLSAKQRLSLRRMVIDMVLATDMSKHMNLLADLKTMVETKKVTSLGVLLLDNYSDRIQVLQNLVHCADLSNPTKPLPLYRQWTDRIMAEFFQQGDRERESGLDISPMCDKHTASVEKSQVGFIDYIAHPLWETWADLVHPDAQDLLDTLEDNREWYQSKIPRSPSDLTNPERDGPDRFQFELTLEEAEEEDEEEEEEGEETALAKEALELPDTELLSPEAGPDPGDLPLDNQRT

[7] = target: T2, 3',5'-cyclic-AMP phosphodiesterase 4B; experiment: Inhibition of PDE4B (unknown origin)
[8] = target: Mitogen-activated protein kinase 10 (Homo sapiens, UniProt P53779); experiment: Inhibition of JNK3 (unknown origin)
Chain of Mitogen-activated protein kinase 10 (P53779 whole entry): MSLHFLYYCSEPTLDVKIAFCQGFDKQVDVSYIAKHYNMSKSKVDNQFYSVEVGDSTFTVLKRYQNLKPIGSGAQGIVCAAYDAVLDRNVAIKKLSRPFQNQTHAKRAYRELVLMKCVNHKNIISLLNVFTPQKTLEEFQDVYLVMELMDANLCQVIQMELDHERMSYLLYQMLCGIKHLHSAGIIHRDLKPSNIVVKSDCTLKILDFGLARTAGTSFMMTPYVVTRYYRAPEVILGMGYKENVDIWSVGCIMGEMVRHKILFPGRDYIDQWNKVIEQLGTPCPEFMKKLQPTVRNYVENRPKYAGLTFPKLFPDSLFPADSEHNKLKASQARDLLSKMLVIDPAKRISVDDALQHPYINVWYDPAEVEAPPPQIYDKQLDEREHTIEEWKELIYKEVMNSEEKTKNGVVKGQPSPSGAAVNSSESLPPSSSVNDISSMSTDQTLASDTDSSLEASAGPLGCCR

[9] = target: Mitogen-activated protein kinase 14 (Homo sapiens, UniProt Q16539); experiment: Inhibition of P38 alpha MAPK (unknown origin)
Chain of Mitogen-activated protein kinase 14 (Q16539 whole entry): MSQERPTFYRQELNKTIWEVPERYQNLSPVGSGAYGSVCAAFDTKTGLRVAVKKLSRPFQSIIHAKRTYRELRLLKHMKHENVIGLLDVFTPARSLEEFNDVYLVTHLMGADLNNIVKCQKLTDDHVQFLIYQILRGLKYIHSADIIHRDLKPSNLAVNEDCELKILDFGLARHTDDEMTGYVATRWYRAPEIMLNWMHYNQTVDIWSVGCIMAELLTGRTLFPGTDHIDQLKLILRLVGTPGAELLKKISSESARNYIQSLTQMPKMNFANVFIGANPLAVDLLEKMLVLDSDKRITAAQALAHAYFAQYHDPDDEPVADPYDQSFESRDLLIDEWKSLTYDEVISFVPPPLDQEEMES

Phosphodiesterase 4 [10] = target: T1, Phosphodiesterase 4; experiment: Inhibition of human PDE4 using [3H]cAMP as substrate incubated for 30 mins; type: protein assay
[11] = Induction of FEV1 in COPD patient at 18 ug/kg administered as single dose; type: functional, Homo sapiens; conditions: dose 18 µg/kg
[12] = Inhibition of TNFalpha in mouse model of sepsis; type: functional
[13] = target: T2, 3',5'-cyclic-AMP phosphodiesterase 4B; experiment: Inhibition of recombinant human PDE4B2 using cAMP as substrate preincubated for 15 mins followed by substrate addition and measured after 60 mins by Alphascreen assay
[14] = target: T2, 3',5'-cyclic-AMP phosphodiesterase 4B; experiment: Inhibition of recombinant human PDE4B catalytic domain expressed in baculovirus infected sf9 cells using 3H-cAMP as substrate incubated for 20 mins by scintillation counting method
[15] = target: cGMP-inhibited 3',5'-cyclic phosphodiesterase 3A (Homo sapiens, UniProt Q14432); experiment: Inhibition of recombinant human PDE3A catalytic domain expressed in baculovirus infected sf9 cells using 3H-cAMP as substrate incubated for 20 mins by scintillation counting method
Chain of cGMP-inhibited 3',5'-cyclic phosphodiesterase 3A (Q14432 whole entry, the tested form may be a part): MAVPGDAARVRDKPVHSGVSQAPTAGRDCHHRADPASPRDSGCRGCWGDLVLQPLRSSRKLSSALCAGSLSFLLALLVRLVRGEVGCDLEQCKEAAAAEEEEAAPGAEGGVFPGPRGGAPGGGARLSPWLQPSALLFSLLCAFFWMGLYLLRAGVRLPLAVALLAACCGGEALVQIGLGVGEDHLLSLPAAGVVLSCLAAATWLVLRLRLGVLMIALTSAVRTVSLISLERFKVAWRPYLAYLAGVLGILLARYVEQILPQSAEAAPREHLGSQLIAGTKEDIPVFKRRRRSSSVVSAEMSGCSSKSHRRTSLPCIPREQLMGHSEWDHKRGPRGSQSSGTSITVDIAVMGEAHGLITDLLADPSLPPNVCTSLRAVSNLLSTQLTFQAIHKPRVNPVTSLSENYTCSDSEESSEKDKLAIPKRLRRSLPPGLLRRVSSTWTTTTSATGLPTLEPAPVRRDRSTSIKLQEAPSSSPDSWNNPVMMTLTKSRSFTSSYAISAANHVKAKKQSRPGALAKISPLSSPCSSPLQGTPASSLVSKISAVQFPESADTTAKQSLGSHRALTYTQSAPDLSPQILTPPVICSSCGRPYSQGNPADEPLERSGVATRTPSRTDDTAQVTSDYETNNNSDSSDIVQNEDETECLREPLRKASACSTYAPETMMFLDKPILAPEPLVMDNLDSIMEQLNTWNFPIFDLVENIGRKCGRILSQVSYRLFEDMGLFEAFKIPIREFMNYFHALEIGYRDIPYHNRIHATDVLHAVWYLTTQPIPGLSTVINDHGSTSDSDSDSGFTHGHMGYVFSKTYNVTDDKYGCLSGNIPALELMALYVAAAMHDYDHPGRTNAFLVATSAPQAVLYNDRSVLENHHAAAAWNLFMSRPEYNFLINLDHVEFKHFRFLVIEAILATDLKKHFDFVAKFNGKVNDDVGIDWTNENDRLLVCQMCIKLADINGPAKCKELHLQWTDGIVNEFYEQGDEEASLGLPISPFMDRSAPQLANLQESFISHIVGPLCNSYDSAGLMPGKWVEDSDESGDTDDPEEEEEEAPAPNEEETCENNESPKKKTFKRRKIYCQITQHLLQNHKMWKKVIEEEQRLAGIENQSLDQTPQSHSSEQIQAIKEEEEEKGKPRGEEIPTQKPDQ

Phosphodiesterase 4 [16] = target: T1, Phosphodiesterase 4; experiment: Inhibition of human U-937 cell derived PDE4 using [3H]-cAMP or [3H]-cGMP as substrate incubated for 60 mins by scintillation proximity assay; type: protein assay
[17] = Antiinflammatory activity in human nasal polyp cells assessed as reduction in TNFalpha release incubated for 30 mins followed by anti-IgE stimulation and measured after 18 hrs by ELISA; type: functional, cell-based; conditions: Nasal polyp cell
Phosphodiesterase 4 [18] = target: T1, Phosphodiesterase 4; experiment: Inhibition of cytosolic PDE4 in human PMNL using [3H]cAMP as substrate by liquid scintillation counting method
[19] = target: T3, 3',5'-cyclic-AMP phosphodiesterase 4D (Homo sapiens, UniProt Q08499); experiment: Inhibition of PDE4D (unknown origin)
T3 sequence (Q08499 whole entry): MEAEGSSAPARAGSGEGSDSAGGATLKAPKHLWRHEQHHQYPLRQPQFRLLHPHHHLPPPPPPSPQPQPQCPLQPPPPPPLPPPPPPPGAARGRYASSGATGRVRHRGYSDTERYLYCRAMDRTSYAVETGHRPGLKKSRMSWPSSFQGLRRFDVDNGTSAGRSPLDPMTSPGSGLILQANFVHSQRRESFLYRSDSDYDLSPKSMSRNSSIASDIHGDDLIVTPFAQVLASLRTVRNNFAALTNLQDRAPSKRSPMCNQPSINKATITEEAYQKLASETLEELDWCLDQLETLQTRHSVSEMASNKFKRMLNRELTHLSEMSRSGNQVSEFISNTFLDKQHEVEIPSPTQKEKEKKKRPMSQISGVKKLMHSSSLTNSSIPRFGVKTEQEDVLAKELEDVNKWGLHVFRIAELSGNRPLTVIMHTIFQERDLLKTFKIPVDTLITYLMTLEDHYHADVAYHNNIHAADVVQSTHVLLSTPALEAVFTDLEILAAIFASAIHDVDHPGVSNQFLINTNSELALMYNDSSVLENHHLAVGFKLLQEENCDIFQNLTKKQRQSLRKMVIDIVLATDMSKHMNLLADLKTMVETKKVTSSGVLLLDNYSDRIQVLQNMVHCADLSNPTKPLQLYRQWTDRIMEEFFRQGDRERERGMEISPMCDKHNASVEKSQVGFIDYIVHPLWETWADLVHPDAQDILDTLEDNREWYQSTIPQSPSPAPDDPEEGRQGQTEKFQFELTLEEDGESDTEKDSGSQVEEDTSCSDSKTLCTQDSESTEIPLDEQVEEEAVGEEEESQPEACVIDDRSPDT

[20] = target: T3, 3',5'-cyclic-AMP phosphodiesterase 4D; experiment: Inhibition of full length human PDE4D2 preincubated for 10 mins followed by cAMP addition and measured after 30 mins by fluorescence method
[21] = target: T2, 3',5'-cyclic-AMP phosphodiesterase 4B; experiment: Inhibition of full length human PDE4B2 expressed in baculovirus infected Sf9 cell expression system preincubated for 10 mins followed by cAMP addition and measured after 30 mins by fluorescence method
[22] = target: T2, 3',5'-cyclic-AMP phosphodiesterase 4B; experiment: Inhibition of human brain PDE4B catalytic domain using cAMP as substrate incubated for 1 hr by luminescence method
[23] = Inhibition of bovine aorta cytosolic PDE4 using cyclic AMP as substrate by liquid scintillation counting; design: species or system Bos taurus

- pIC50 (Phosphodiesterase 4 [1]): 9.45
SMILES: COc1ccc(C2=NN(C3CCN(S(=O)(=O)c4ccccc4C)CC3)C(=O)C(C)(C)C2)cc1OC

- pIC50 [2]: 8.8
SMILES: CCn1ncc2c(NC3CCOCC3)c(-c3nnc(Cc4sc(C)nc4C)o3)cnc21

- IC50 (Phosphodiesterase 4 [1]): 0.9 nM
SMILES: O=C(O/C(=C\c1c(Cl)cncc1Cl)c1ccc(OC(F)F)c(OCC2CC2)c1)c1ccc(OC(F)F)c(OCC2CC2)c1

- IC50 (Phosphodiesterase 4 [3]): 26 pM
SMILES: CS(=O)(=O)Nc1ccc(C(=O)O[C@@H](Cc2c(Cl)c[n+]([O-])cc2Cl)c2ccc(OC(F)F)c(OCC3CC3)c2)cc1OCC1CC1

- IC50 [4]: 26 nM
SMILES: CCOc1cc(C(CS(C)(=O)=O)N2C(=O)c3csc(NC(C)=O)c3C2=O)ccc1OC (stereo not drawn)

- IC50 [5]: 3 nM
- IC50 [6]: 3 nM
SMILES: CCOc1cc([C@H](CS(C)(=O)=O)N2C(=O)c3cccc(NC(=O)OCCOCCOCCOCCOC)c3C2=O)ccc1OC

- IC50 [7]: 200 nM
- IC50 [8]: 700 nM
- IC50 [9]: 500 nM
SMILES: CC(=O)Nc1ccc(-c2c(-c3ccc(F)cc3)nc([S+](C)[O-])n2C)cn1 (stereo not drawn)

- IC50 (Phosphodiesterase 4 [10]): 12 nM
SMILES: COc1ccc(C2=CNC(=O)N(Cc3nc4cccc(C#N)c4o3)C2)cc1OC1CCCC1

SMILES: COc1cc2c(cc1OC)-c1c/c(=N\c3c(C)cc(C)cc3C)n(CCNC(N)=O)c(=O)n1CC2 [ENSIFENTRINE]
- Activity [11]: >15%

- EC50 [12]: 0.01 mg/kg
- IC50 (Phosphodiesterase 4 [1]): 7 nM
SMILES: NS(=O)(=O)c1cccc(-c2c(-c3ccccc3)nc(C(F)(F)F)nc2N2CCOCC2)c1

- IC50 [13]: 0.01 nM
SMILES: COc1ccc(-c2nc(C(=O)NCc3coc4ccccc34)c([C@@H](C)N)o2)c2ccc(C(F)(F)F)nc12

- IC50 [14]: 42 nM
- IC50 [15]: 360 nM
SMILES: COC1=CC=C(C2=NN(CCCCCOc3ccc(C4=NNC(=O)CC4C)cc3)C(=O)CC2C)C2CC(C(F)(F)F)=NN12 (stereo not drawn)

- IC50 [5]: 3 nM
- IC50 [6]: 3 nM
SMILES: CCOc1cc([C@H](CS(C)(=O)=O)N2C(=O)c3cccc(NC(=O)OCCOCCOCCOC)c3C2=O)ccc1OC

- IC50 (Phosphodiesterase 4 [16]): 2.8 nM
SMILES: CNc1nc(-c2cccc(NC(=O)c3ccc(C(=O)OC)cc3)c2)c2cc(OC)c(OC)cc2n1 [LOTAMILAST]

- IC50 (Phosphodiesterase 4 [1]): 0.2 nM
SMILES: COc1ccc(C(Cc2c(Cl)cncc2Cl)OC(=O)c2ccc(OC(F)F)c(OCC3CC3)c2)cc1OC (stereo not drawn)

SMILES: O=C(Nc1c(Cl)cncc1Cl)C(=O)c1cn(Cc2ccc(F)cc2)c2ncccc12 [ELBIMILAST]
- IC50 (Phosphodiesterase 4 [1]): 3 nM

- IC50 [5]: 3 nM
- IC50 [6]: 3 nM
SMILES: CCOc1cc([C@H](CS(C)(=O)=O)N2C(=O)c3cccc(NC(=O)OCCOCCOCCOCCOCCOCCOCCOCCOC)c3C2=O)ccc1OC

SMILES: O=C(C(=O)c1cn(Cc2ccc(F)cc2)c2ccc(O)cc12)c1c(Cl)cncc1Cl
- EC50 [17]: 110 nM
- IC50 (Phosphodiesterase 4 [18]): 9.7 nM

- IC50 [19]: 800 nM
SMILES: CC1CN(C(=O)CO/N=C/c2ccc(OC(F)F)c(OC3CCCC3)c2)CC(C)O1 (stereo not drawn)

- IC50 [5]: 3 nM
- IC50 [6]: 3 nM
SMILES: CCOc1cc([C@H](CS(C)(=O)=O)N2C(=O)c3cccc(NC(=O)OCCOCCOCCOCCOCCOCCOC)c3C2=O)ccc1OC

- IC50 [20]: 440 nM
- IC50 [21]: 5.5 nM
SMILES: COc1ccc(-c2nc3c(c(Nc4ccc(CC(=O)O)cc4)n2)SCCC3)cc1F

- IC50 [22]: 1200 nM
SMILES: CC(C)Nc1nccc(-c2c(C3CC3)nn3ccccc23)n1

SMILES: CCOc1cc2c(cc1OCC)C(c1ccc(CCCN3CCN(c4ccc(Cl)cc4)CC3)cc1)=NCC(=O)N2
- IC50 [23]: 40 nM
